Laboratory results taken from the NIST ThermoML archive (doi:10.1016/j.jct.2019.05.023).

Test: xn = mol fraction of the nth substance listed
Conditions: 101.3 kPa, Liquid; for speed of sound: Frequency=3 MHz, Single path-length method; for mass density: Vibrating tube method

CCOCCO [2-ethoxyethan-1-ol] + CCn1cc[n+](C)c1.O=S(=O)([O-])C(F)(F)F
Conditions	mass density, 298.15 K [kg/m3]	mass density, 303.15 K [kg/m3]	mass density, 308.15 K [kg/m3]	mass density, 313.15 K [kg/m3]	mass density, 318.15 K [kg/m3]	speed of sound, 298.15 K [m/s]	speed of sound, 303.15 K [m/s]	speed of sound, 308.15 K [m/s]	speed of sound, 313.15 K [m/s]	speed of sound, 318.15 K [m/s]
x2 = 0	926	921	917	912	907	1304	1287	1270	1252	1234
x2 = 0.067	981	976	971	967	962	1321	1305	1289	1272	1256
x2 = 0.133	1029	1024	1020	1015	1011	1333	1318	1302	1286	1271
x2 = 0.192	1066	1062	1058	1053	1049	1344	1329	1314	1299	1283
x2 = 0.268	1112	1107	1103	1099	1094	1356	1342	1328	1313	1299
x2 = 0.35	1157	1152	1148	1144	1139	1369	1355	1342	1328	1315
x2 = 0.428	1196	1191	1187	1183	1178	1380	1367	1354	1341	1328
x2 = 0.54	1245	1241	1237	1233	1228	1395	1383	1370	1358	1346
x2 = 0.609	1272	1268	1264	1260	1255	1403	1391	1379	1368	1356
x2 = 0.674	1295	1291	1287	1283	1278	1411	1399	1387	1376	1364
x2 = 0.734	1314	1310	1306	1302	1297	1417	1406	1394	1383	1372
x2 = 0.799	1332	1328	1324	1320	1315	1424	1412	1401	1390	1379
x2 = 0.884	1354	1350	1346	1342	1337	1431	1420	1409	1398	1387
x2 = 0.951	1371	1367	1363	1359	1354	1437	1425	1414	1403	1392

CCCOCCO [2-propoxyethanol] + CCn1cc[n+](C)c1.O=S(=O)([O-])C(F)(F)F
Conditions	mass density, 298.15 K [kg/m3]	mass density, 303.15 K [kg/m3]	mass density, 308.15 K [kg/m3]	mass density, 313.15 K [kg/m3]	mass density, 318.15 K [kg/m3]	speed of sound, 298.15 K [m/s]	speed of sound, 303.15 K [m/s]	speed of sound, 308.15 K [m/s]	speed of sound, 313.15 K [m/s]	speed of sound, 318.15 K [m/s]
x2 = 0	908	903	899	895	890	1301	1283	1266	1248	1231
x2 = 0.051	945	940	936	931	927	1308	1292	1275	1258	1241
x2 = 0.104	981	976	972	968	963	1317	1300	1284	1268	1252
x2 = 0.199	1042	1037	1033	1029	1024	1331	1316	1301	1286	1271
x2 = 0.241	1067	1063	1059	1054	1050	1338	1323	1308	1294	1279
x2 = 0.296	1098	1094	1089	1085	1081	1346	1332	1318	1304	1289
x2 = 0.416	1161	1157	1153	1149	1145	1364	1351	1338	1324	1311
x2 = 0.506	1204	1200	1196	1192	1187	1377	1364	1352	1339	1327
x2 = 0.606	1247	1243	1239	1235	1231	1391	1379	1367	1355	1343
x2 = 0.698	1284	1280	1276	1272	1268	1404	1392	1381	1369	1357
x2 = 0.808	1324	1320	1316	1311	1307	1419	1408	1396	1385	1374
x2 = 0.845	1336	1332	1328	1324	1320	1424	1413	1402	1390	1379
x2 = 0.898	1353	1349	1344	1340	1336	1431	1420	1409	1398	1386
x2 = 0.953	1369	1365	1361	1357	1353	1438	1427	1416	1405	1394
